Laboratory results taken from patent US12421252B2, “Spiro (isobenzofuranazetidine) compounds for the treatment of autoimmune disease” (Hoffmann-La Roche Inc., priority 2020, dated 2025).

target: T1, human TLR8 (Homo sapiens, UniProt Q9NR97); test: HEK293-Blue-hTLR-8 cells assay; assay type: cell-based; conditions: HEK293-Blue-hTLR8 cells, R848 stimulation, 20 hrs, SEAP reporter; read-out: HEK/hTLR8 IC50
T1 sequence (Q9NR97 27-1041): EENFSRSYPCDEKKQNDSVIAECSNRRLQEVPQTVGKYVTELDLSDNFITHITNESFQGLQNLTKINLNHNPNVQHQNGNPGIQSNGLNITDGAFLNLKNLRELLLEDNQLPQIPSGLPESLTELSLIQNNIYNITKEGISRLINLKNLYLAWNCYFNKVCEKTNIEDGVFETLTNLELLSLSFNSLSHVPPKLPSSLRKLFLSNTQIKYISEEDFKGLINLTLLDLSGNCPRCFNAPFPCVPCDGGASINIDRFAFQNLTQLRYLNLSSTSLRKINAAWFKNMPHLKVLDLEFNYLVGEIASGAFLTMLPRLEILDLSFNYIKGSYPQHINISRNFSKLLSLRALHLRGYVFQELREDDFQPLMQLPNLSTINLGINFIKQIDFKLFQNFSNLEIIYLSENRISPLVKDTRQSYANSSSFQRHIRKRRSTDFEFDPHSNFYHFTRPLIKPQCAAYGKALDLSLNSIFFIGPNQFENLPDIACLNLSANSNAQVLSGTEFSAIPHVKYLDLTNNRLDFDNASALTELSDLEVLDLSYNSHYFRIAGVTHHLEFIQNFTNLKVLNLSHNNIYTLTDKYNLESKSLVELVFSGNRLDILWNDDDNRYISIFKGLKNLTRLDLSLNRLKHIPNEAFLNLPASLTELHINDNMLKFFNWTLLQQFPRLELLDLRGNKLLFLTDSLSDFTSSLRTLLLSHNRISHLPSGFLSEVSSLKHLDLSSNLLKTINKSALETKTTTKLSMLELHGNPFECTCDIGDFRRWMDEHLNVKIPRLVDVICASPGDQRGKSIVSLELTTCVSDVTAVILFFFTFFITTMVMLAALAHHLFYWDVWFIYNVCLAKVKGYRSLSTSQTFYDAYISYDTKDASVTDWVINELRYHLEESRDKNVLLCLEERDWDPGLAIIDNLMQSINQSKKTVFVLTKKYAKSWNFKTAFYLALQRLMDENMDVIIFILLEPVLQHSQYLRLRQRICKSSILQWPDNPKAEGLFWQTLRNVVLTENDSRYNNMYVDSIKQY
Source text: HEK293-Blue-hTLR-8 cells assay:
A stable HEK293-Blue-hTLR-8 cell line was purchased from InvivoGen (Cat. #: hkb-htlr8, San Diego, California, USA). These cells were originally designed for studying the stimulation of human TLR8 by monitoring the activation of NF-κB. A SEAP (secreted embryonic alkaline phosphatase) reporter gene was placed under the control of the IFN-β minimal promoter fused to five NF-κB and AP-1-binding sites. The SEAP was induced by activating NF-κB and AP-1 via stimulating HEK-Blue hTLR8 cells with TLR8 ligands. Therefore the reporter expression was declined by TLR8 antagonist under the stimulation of a ligand, such as R848, for incubation of 20 hrs. The cell culture supernatant SEAP reporter activity was determined using QUANTI-Blue™kit (Cat. #: rep-qb1, Invivogen, San Diego, Ca, USA) at a wavelength of 640 nm, a detection medium that turns purple or blue in the presence of alkaline phosphatase.
HEK293-Blue-hTLR8 cells were incubated at a density of 250,000˜450,000 cells/mL in a volume of 170 μL in a 96-well plate in Dulbecco's Modified Eagle's medium (DMEM) containing 4.5 g/L glucose, 50 U/mL penicillin, […], […], 2 mM L-glutamine, 10% (v/v) heat-inactivated fetal bovine serum with addition of 20 μL test compound in a serial dilution in the presence of final DMSO at 1% and 10 μL of 60 uM R848 in above DMEM, perform incubation under 37° C. in a CO2 incubator for 20 hrs. Then 20 μL of the supernatant from each well was incubated with 180 μL Quanti-blue substrate solution at 37° C. for 2 hrs and the absorbance was read at 620-655 nm using a spectrophotometer. The signaling pathway that TLR8 activation leads to downstream NF-κB activation has been widely accepted, and therefore similar reporter assay was modified for evaluating TLR8 antagonist.

Compound	IC50
C[C@@H]1CN(c2ccc(C#N)n3ncc(F)c23)C[C@H](CN2CC3(C2)OCc2cc(N4CC5(CN(C)C5)C4)cnc23)O1 [Example 22, 3-fluoro-4-[(2R,6S)-2-methyl-6-[[3-(6-methyl-2,6-diazaspiro[3.3]heptan-2-yl)spiro[5H-furo[3,4-b]pyridine-7,3′-azetidine]-1′-yl]methyl]morpholin-4-yl]pyrazolo[1,5-a]pyridine-7-carbonitrile]	64 nM
C[C@@H]1CN(c2ccc(C#N)n3ncc(F)c23)C[C@H](CN2CC3(C2)OCc2cc(N4CC(C)(N)C4)ncc23)O1 [Example 24, 4-[(2S,6R)-2-[[6-(3-amino-3-methyl-azetidin-1-yl)spiro[1H-furo[3,4-c]pyridine-3,3′-azetidine]-1′-yl]methyl]-6-methyl-morpholin-4-yl]-3-fluoro-pyrazolo[1,5-a]pyridine-7-carbonitrile]	59 nM
C[C@@H]1CN(c2ccc(C#N)n3nccc23)C[C@H](CN2CC3(C2)OCc2cc(N4CC(C)(N)C4)ncc23)O1 [Example 25, 4-[(2S,6R)-2-[[6-(3-amino-3-methyl-azetidin-1-yl)spiro[1H-furo[3,4-c]pyridine-3,3′-azetidine]-1′-yl]methyl]-6-methyl-morpholin-4-yl]pyrazolo[1,5-a]pyridine-7-carbonitrile]	120 nM
C[C@@H]1CN(c2ccc(C#N)n3nccc23)C[C@H](CN2CC3(C2)OCc2cc(N4CC(C)(N)C4)cnc23)O1 [Example 26, 4-[(2S,6R)-2-[[3-(3-amino-3-methyl-azetidin-1-yl)spiro[5H-furo[3,4-b]pyridine-7,3′-azetidine]-1′-yl]methyl]-6-methyl-morpholin-4-yl]pyrazolo[1,5-a]pyridine-7-carbonitrile]	234 nM
[2H]c1ccc2c(N3C[C@H](CN4CC5(C4)OCc4cc(N6C[C@H]7NCCO[C@@H]7C6)ncc45)O[C@H](C)C3)ccc(C#N)c2n1 [Example 28, 5-[(2S,6R)-2-[[6-[(4aR,7aR)-3,4,4a,5,7,7a-hexahydro-2H-pyrrolo[3,4-b][1,4]oxazin-6-yl]spiro[1H-furo[3,4-c]pyridine-3,3′-azetidine]-1′-yl]methyl]-6-methyl-morpholin-4-yl]-2-deuterio-quinoline-8-carbonitrile]	25 nM
[2H]c1ccc2c(N3C[C@H](CN4CC5(C4)OCc4cc(N6C[C@@H](N)[C@H](OC)C6)cnc45)O[C@H](C)C3)ccc(C#N)c2n1 [Example 31, 5-[(2S,6R)-2-[[3-[(3R,4R)-3-amino-4-methoxy-pyrrolidin-1-yl]spiro[5H-furo[3,4-b]pyridine-7,3′-azetidine]-1′-yl]methyl]-6-methyl-morpholin-4-yl]-2-deuterio-quinoline-8-carbonitrile]	30 nM
[2H]c1ccc2c(N3C[C@H](CN4CC5(C4)OCc4cc(N6CC(N)C6)ncc45)O[C@H](C)C3)ccc(C#N)c2n1 [Example 32, 5-[(2S,6R)-2-[[6-(3-aminoazetidin-1-yl)spiro[1H-furo[3,4-c]pyridine-3,3′-azetidine]-1′-yl]methyl]-6-methyl-morpholin-4-yl]-2-deuterio-quinoline-8-carbonitrile]	22 nM
C[C@@H]1CN(c2ccc(C#N)n3ncc(F)c23)C[C@H](CN2CC3(C2)OCc2cc(N4CC(C)(N)C4)cnc23)O1 [Example 33, 4-[(2S,6R)-2-[[3-(3-amino-3-methyl-azetidin-1-yl)spiro[5H-furo[3,4-b]pyridine-7,3′-azetidine]-1′-yl]methyl]-6-methyl-morpholin-4-yl]-3-fluoro-pyrazolo[1,5-a]pyridine-7-carbonitrile]	24 nM
